Here are results for three compounds from patent US8354447B2, “mGLU receptors antagonists for treating disorders associated with mGLU receptors including addiction and depression” (The Scripps Research Institute, priority 2002, dated 2013).

Read-outs that look alike come from different tables or passages of the source.

In assay [1] the test system is male Wistar rats. The experiment in a line: ICSS thresholds during spontaneous nicotine withdrawal. The class given is in vivo, rat. The note with it: for ICSS reward thresholds: 1 mg/kg, 30 min before the 18 h time-point. The source says: (§1) Animals were trained to respond according to a modification of the discrete-trial current-threshold procedure of Kornetsky and Esposito (Fed Proc 38:2473-2476, 1979), which has been described in detail previously (Markou and Koob, 1992 Physiol Behav 51:111-119). Briefly, a trial was initiated by the delivery of a non-contingent electrical stimulus. […] The current intensity delivered was adjusted for each animal and typically ranged from 50 to 200 μA. […] After a variable inter-trial interval (7.5-12.5 sec, average of 10 sec), another trial was initiated with the delivery of a non-contingent electrical stimulus. […] Responding during the inter-trial interval delayed the onset of the next trial by 12.5 sec. Current levels were varied in alternating descending and ascending series. A set of three trials was presented for each current intensity. Current intensities were altered in 5 μA steps. In each testing session, four alternating descending-ascending series were presented. […] The overall threshold of the session was defined as the mean of the thresholds for the four individual series. Each testing session was ˜30 min in duration. The latency between the onset of the non-contingent stimulus and a positive response was recorded as the response latency. The response latency for each test session was defined as the mean response latency of all trials during which a positive response occurred. After establishment of stable ICSS reward thresholds, rats were tested in the ICSS procedure once daily except for the spontaneous nicotine withdrawal experiment when rats were tested at time-points according to the experimental design.
Osmotic mini-pumps were surgically removed from nicotine-treated rats (n=15) (defined as rats having been prepared with mini-pumps delivering 3.16 mg/kg/day nicotine free-base for at least seven days) or corresponding control rats (n=17; rats prepared with vehicle-containing mini-pumps). All rats were then tested in the ICSS procedure at 12, 18, 24, 36, 48 and 72 hr after the removal of osmotic mini-pumps. These time points were chosen based on the time course of threshold elevations previously observed during spontaneous nicotine withdrawal after removal of nicotine-delivering osmotic mini-pumps (Harrison et al., 2001, Neuropsychopharmacology 25:55-71; K.L.). […] Thirty min before being tested at the 18 h time-point, one group of nicotine withdrawing and one group of control rats were injected with LY341495 (1 mg/kg); the remaining rats were injected with vehicle.

A further assay has as its system Wistar rats. The experiment in a line: Nicotine self-administration under a fixed ratio schedule (LY341495, LY341495 and MPEP).
For assay [2], the system named is male Wistar rats.
Excerpt: as §1
Systemic administration experiments. These experiments investigated whether nicotine withdrawal, as measured by elevations in ICSS thresholds, could be precipitated in nicotine-treated rats by systemic administration of an agonist at mGluII receptors (LY314582), an agonist at GABAB receptors (CGP44532), or antagonists at mGlu5 (MPEP), NMDA (MK-801) or AMPA/Kainate (NBQX) glutamate receptors. For each drug tested, rats were trained in the ICSS paradigm until stable baseline responding was achieved, defined as ≦10% variation in thresholds for 3 consecutive days and requiring approximately 14 days of daily testing. […] One group was then prepared with subcutaneous osmotic mini-pumps delivering vehicle and the second group with mini-pumps delivering 9 mg/kg/day nicotine hydrogen tartrate (3.16 mg/kg/day nicotine free base). There was a minimum seven-day interval after mini-pump implantation, during which ICSS reward thresholds continued to be measured daily, before the effect of any systemically administered drug on reward thresholds was evaluated.

Another assay relates to drug-naïve rats. The note with it: previous studies (Harrison et al., 2002; Macey et al., 2001); cited from earlier work.
Assay [3] has as its system male Wistar rats. The experiment in a line: ICSS thresholds after intra-ventral tegmental area LY314582. Format: in vivo, rat. Here is the method:
All injections were administered bilaterally in a volume of 0.5 μl/side given over 66 sec through 17 mm injectors. The injectors were connected to calibrated polyethylene-10 tubing preloaded with drug solution and protruded 3 mm below the ends of the cannulas into the VTA. After infusion, the injectors were kept in place for an additional 60 sec to allow for drug diffusion. Injectors were then removed and replaced with 14 mm wire stylets, and the animals then placed directly into the ICSS testing apparatus. Injections were made using a Harvard microinfusion pump (Model 975).
After stable baseline ICSS responding was achieved (≦10% variation in threshold for 3 consecutive days), rats (n=15) with bilateral cannulas directed toward the VTA were allocated to two groups such that there were no differences in mean baseline reward thresholds or body weight between groups. […] Animals again were tested in the ICSS paradigm each day for seven days prior to drug treatment. […] There was a minimum 48 h interval between each injection, during which ICSS thresholds continued to be measured, to allow thresholds to return to baseline levels before further drug tests. At the conclusion of the experiment, all animals were anaesthetized and their brains removed and immediately placed on ice. The brains were cut in 50 μm sections, and placements of the injectors and the electrodes were examined (see FIG. 1 for histological verification of injection sites). Only those rats with injection tips located within the VTA were included in statistical analyses.

[4] abbreviates: CGP44532 0.065 mg/kg i.p., Nicotine-treated rats.
Where [5] appears, read: CGP44532 0.065 mg/kg i.p., Vehicle-treated rats.
Setting [6] is: CGP44532 0.125 mg/kg i.p., Nicotine-treated rats.
Where [7] appears, read: CGP44532 0.125 mg/kg i.p., Vehicle-treated rats.
[8] abbreviates: CGP44532 0.25 mg/kg i.p., Nicotine-treated rats.
The mark [9] stands for this setting: CGP44532 0.25 mg/kg i.p., Vehicle-treated rats.
Where [10] appears, read: CGP44532 0.5 mg/kg i.p., Nicotine-treated rats.
The mark [11] stands for this setting: CGP44532 0.5 mg/kg i.p., Vehicle-treated rats.

`N[C@](CC1c2ccccc2Oc2ccccc21)(C(=O)O)[C@H]1C[C@@H]1C(=O)O` [LY341495, 2S-2-amino-2-(1S,2S-2-carboxycyclopropan-1-yl)-3-(xanth-9-yl)propionic acid]: the ICSS reward thresholds entry is given as “without affecting thresholds in control rats” in the assay with male Wistar rats [1] (control rats) and “significantly attenuated the elevations in reward thresholds in nicotine-withdrawing rats” in the assay with male Wistar rats [1] (nicotine-withdrawing rats, p<0.001). Besides, the ICSS response Latencies result in the assay with male Wistar rats [1] (LY341495 1 mg/kg) is “had no effect on response latencies at any time-point after injection”. The nicotine responding entry with Wistar rats (0.1, 0.5, 3 and 5 mg/kg LY341495) is “significantly decreased nicotine responding”. Besides, the “decrease of nicotine self-administration” value in the assay with Wistar rats (LY341495 0.5 mg/kg) is on record as “approximately 35%”. Besides, in the assay with Wistar rats (LY341495 0.5 mg/kg alone, p<0.05), the nicotine self-administration result is reported as “significantly decreased nicotine self-administration”.
For the compound `NC1(C(=O)O)CCC2C(C(=O)O)C21` (racemic) [LY314582, 2-aminobicyclo(3.1.0)hexane-2,6-dicarboxylic acid], the ICSS reward thresholds result with male Wistar rats [2] (7.5 mg/kg i.p., nicotine-treated rats, p<0.01) is on record as “elevated reward thresholds in nicotine-treated rats compared to vehicle treatment”; in the assay on male Wistar rats [2] (2.5-7.5 mg/kg intraperitoneal, nicotine-treated and control rats) it was “elevated ICSS reward thresholds in nicotine-treated but not control rats”; in the assay with male Wistar rats [3] (bilateral microinfusion into the VTA, 10-100 ng/side), “significantly elevated reward thresholds in nicotine-treated but not control rats”; with male Wistar rats [3] (intra-VTA 50 and 100 ng/side), “sufficient to elevate reward thresholds in nicotine-treated rats without affecting thresholds in control rats”. In addition, the ICSS response Latencies result with male Wistar rats [2] (LY314582 2.5-7.5 mg/kg i.p., any dose tested) is on record as “had no effect on response latencies in nicotine-treated or control rats”; in the assay on male Wistar rats [3] (after VTA administration, nicotine-treated or control rats), “had no effect on response latencies”. In addition, in the assay with drug-naïve rats, the “dose that elevated ICSS thresholds in drug-naïve rats” value is no less than 10 mg/kg.
On to `CP(=O)(O)C[C@@H](O)CN` [CGP44532, 3-Amino-2-(S)-hydroxypropyl-methyl-phosphinic acid], for which the “ICSS Thresholds” value was 96.37 ± 3.2 percentage of baseline in the assay on male Wistar rats [2] (setting [4]); 96.28 ± 3.1 percentage of baseline with male Wistar rats [2] (setting [5]); 103.88 ± 7.2 percentage of baseline in the assay with male Wistar rats [2] (setting [6]); 106.76 ± 3.2 percentage of baseline with male Wistar rats [2] (setting [7]); 109.98 ± 5.4 percentage of baseline in the assay on male Wistar rats [2] (setting [8]); 109.14 ± 5.1 percentage of baseline in the assay on male Wistar rats [2] (setting [9]). Also, the entries for the “ICSS Thresholds” value in the assay on male Wistar rats [2] (setting [10]) and in the assay on male Wistar rats [2] (setting [11]) were 146.83 ± 14.3 percentage of baseline and 148.43 ± 16.6 percentage of baseline, respectively. Further, the “ICSS response Latencies” value in the assay on male Wistar rats [2] (setting [4]) is on record as 106.02 ± 8.1 percentage of baseline; with male Wistar rats [2] (setting [5]) it was 97.31 ± 3.8 percentage of baseline; with male Wistar rats [2] (setting [6]), 98.15 ± 5.3 percentage of baseline; in the assay on male Wistar rats [2] (setting [7]), 102.34 ± 2.8 percentage of baseline; in the assay on male Wistar rats [2] (setting [8]) it was 99.05 ± 3.1 percentage of baseline; in the assay on male Wistar rats [2] (setting [9]), 105.03 ± 3.1 percentage of baseline. For the same compound, the figures for the “ICSS response Latencies” value in the assay with male Wistar rats [2] (setting [10]), in the assay with male Wistar rats [2] (setting [11]) and in the assay on male Wistar rats [2] (CGP44532 0.065-0.5 mg/kg) were 98.11 ± 5.4 percentage of baseline, 106.13 ± 6.5 percentage of baseline and “had no effect on response latencies at any dose tested”, respectively. Moreover, the ICSS reward thresholds entry is “elevated reward thresholds in nicotine-treated and control rats” with male Wistar rats [2] (CGP44532 0.5 mg/kg, p<0.001); “did not precipitate reward threshold elevations in nicotine treated rats at the lowest doses tested” in the assay with male Wistar rats [2] (CGP44532 0.065-0.25 mg/kg, nicotine treated rats). The “dose that elevated ICSS thresholds in drug-naïve rats” value in the assay on drug-naïve rats is recorded as no less than 0.25 mg/kg.
